From US12479827B2, “Heteroaromatic carboxamide derivatives as plasma kallikrein inhibitors” (Boehringer Ingelheim International GmbH, priority 2020, dated 2025)
Peptide text beside a SMILES is read from it. * marks the point of attachment. AMC = Cc1cc(=O)oc2cc(N*)ccc12

Columns and labels:
Type in all cases: biochemical
Human PKK [1] = molecular target: T1, Human PKK (Homo sapiens, UniProt P03952); experiment: Inhibition of PKK using an endpoint assay (human PKK); conditions: fluorogenic substrate H-Pro-Phe-Arg-AMC, 1 h room temperature, method names human or rat PKK, table does not say which
T1 construct: purchased Enzyme Research Laboratories
In short: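 Endpoint fluorescence (ex 355 nm, em 460 nm) after stopping with 1 μM final PPACK II. Buffer: Tris 100 mM pH 7.8, NaCl 150 mM, BSA 0.1%, Tween20 0.05%, with 1% DMSO present; enzyme is human plasma kallikrein.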

[2] = molecular target: T2, PKK in kaolin activated human platelet poor plasma (Homo sapiens, UniProt P03952); experiment: Inhibition of PKK in kaolin activated human PPP; conditions: 25-750 μg/mL kaolin, global fit, text b200 calls the values IC90;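 note: readout is the rate of fluorogenic substrate cleavage in rfu per min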
T2 construct: Platelet poor plasma (PPP) obtained from human wholeblood; from tissue
Description: Platelet poor plasma (PPP) obtained from human wholeblood, anticoagulated with Na-Citrate, is incubated with various concentrations of the test compound together with either 25, 75, 250, or 750 μg/mL kaolin in assay buffer for 20 min at 37° C. such that for each kaolin dose used a concentration response is obtained for the test compound.

human TK1 = molecular target: T3, human TK1 (Homo sapiens, UniProt P06870); experiment: Inhibition of TK1 (Ki); conditions: activated human TK1, substrate H-Pro-Phe-Arg-AMC, 24° C.
T3 construct: purchased R&D Systems
In short: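 Trypsin-activated human TK1 (31.25 nM) incubated at 24° C with 0.1 mM H-Pro-Phe-Arg-AMC and compound in Tris pH 7.8, 150 mM NaCl, 0.1% BSA, 0.05% Tween20, 1% DMSO. AMC fluorescence (ex 350/em 450 nm) read kinetically over 16 min; IC50 from four-parameter fit, converted to Ki using substrate KM.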

Human PKK [3] = molecular target: T1, Human PKK; experiment: Inhibition of PKK (Ki); conditions: substrate KM, enzyme PKK
Description: The ability of compounds of formula (I) to inhibit plasma kallikrein (PKK), Factor XIIa (FXIIa), Factor XIa (FXIa), Factor Xa (FXa), Factor IIa (alpha-thrombin; FIIa), plasmin, trypsin, tissue kallikrein 1 (TK1), Factor VIIa (FVIIa), or FVIIa complexed with Tissue Factor, phospholipids and CaCl2 (FVIIa/TF/PL/CaCl2) is determined using the following biochemical assays in assay buffer (100 mM Tris, 150 mM NaCL, adjusted to a pH of 7.8 with HCl, and containing 0.1% (w/v) BSA and 0.05% (v/v) Tween20) in the presence of 1% (v/v) DMSO:
Human PKK (1.78 nM or 0.025 U/mL; Enzyme Research Laboratories) is incubated at 24° C. with 0.25 mM fluorogenic substrate H-Pro-Phe-Arg-AMC (11295 from Bachem) and various concentrations of the test compound in assay buffer. Measurements are performed in a kinetic interval every 2nd minute for 16 min using a Spectramax M5 (Molecular Devices) with the following settings of the wavelength excitation of 350 nm and wavelength emission of 450 nm.
The pIC50 values are then fitted using a four-parametric fitting procedure using GraphPad Prism (version 6; GraphPad Software, Inc.). Respective Ki values are obtained by correction of the IC50 values for the respective KM value of the used substrate (see Table A for the obtained KM values of the used substrates) using the following formula:
[formula] Where the IC50 is in molar and the KM value in mM.

T3 sequence (P06870 25-262): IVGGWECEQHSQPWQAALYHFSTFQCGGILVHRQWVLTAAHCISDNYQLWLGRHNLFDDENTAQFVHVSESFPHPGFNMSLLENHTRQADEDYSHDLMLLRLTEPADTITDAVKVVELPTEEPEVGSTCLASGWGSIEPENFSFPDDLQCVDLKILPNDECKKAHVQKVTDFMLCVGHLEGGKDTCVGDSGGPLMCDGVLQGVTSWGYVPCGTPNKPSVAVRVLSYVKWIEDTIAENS
T1 sequence (P03952 20-390 limits assumed): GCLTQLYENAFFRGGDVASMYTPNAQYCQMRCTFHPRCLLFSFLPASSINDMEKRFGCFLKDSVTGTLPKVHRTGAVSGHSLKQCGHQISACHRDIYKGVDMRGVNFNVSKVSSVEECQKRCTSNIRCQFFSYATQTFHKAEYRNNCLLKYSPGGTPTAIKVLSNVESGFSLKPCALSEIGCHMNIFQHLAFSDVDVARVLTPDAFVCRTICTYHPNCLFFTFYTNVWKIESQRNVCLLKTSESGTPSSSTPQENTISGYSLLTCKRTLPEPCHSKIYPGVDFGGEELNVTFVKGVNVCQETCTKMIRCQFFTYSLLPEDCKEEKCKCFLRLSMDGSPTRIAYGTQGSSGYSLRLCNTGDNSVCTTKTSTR
T1 sequence (P03952 391-638 limits assumed): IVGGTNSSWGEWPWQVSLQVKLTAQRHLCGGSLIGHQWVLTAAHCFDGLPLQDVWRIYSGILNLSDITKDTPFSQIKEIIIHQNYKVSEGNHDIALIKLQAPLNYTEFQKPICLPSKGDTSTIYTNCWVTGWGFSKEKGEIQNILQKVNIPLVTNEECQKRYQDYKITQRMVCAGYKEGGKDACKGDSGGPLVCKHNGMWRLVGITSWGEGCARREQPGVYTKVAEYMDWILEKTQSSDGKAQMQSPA
T2 sequence (P03952 391-638 limits assumed): as above
T2 sequence (P03952 20-390 limits assumed): as the sequence (P03952 20-390 limits assumed) above

## Cc1c(Cn2cc(C(=O)N[C@@H]3CCc4c3ncn4C)cn2)ccc(N2CC3CC3C2)c1C#N (stereo partly drawn) [Example 193, 1-[(4-{3-azabicyclo[3.1.0]hexan-3-yl}-3-cyano-2-methylphenyl)methyl]-N-[(4R)-1-methyl-1H,4H,5H,6H-cyclopenta[d]imidazol-4-yl]-1H-pyrazole-4-carboxamide]
Human PKK [1]
  IC50: 0.4 nM
[2]
  IC50: 253 nM
Human TK1
  Ki: > 10000 nM

## Cn1cnc2c1CC[C@H]2NC(=O)c1cn(Cc2ccc(N3CC4CC4C3)c(C#N)c2)cn1 (stereo partly drawn) [Example 196, 1-[(4-{3-azabicyclo[3.1.0]hexan-3-yl}-3-cyanophenyl)methyl]-N-[(4R)-1-methyl-1H,4H,5H,6H-cyclopenta[d]imidazol-4-yl]-1H-imidazole-4-carboxamide]
Human PKK [1]
  IC50: 1.5 nM
[2]
  IC50: 350 nM
Human TK1
  Ki: > 10000 nM

## Cn1cnc2c1CC[C@H]2NC(=O)c1cnn(Cc2ccc(N3CC4CC4C3)c(C#N)c2F)c1 (stereo partly drawn) [Example 198, 1-[(4-{3-azabicyclo[3.1.0]hexan-3-yl}-3-cyano-2-fluorophenyl)methyl]-N-[(4R)-1-methyl-1H,4H,5H,6H-cyclopenta[d]imidazol-4-yl]-1H-pyrazole-4-carboxamide]
Human PKK [1]
  IC50: 0.8 nM
[2]
  IC50: 398 nM
Human TK1
  Ki: > 10000 nM

## Cc1nc(N2CC3CC3C2)ccc1Cn1cc(C(=O)N[C@@H]2CCc3c2ncn3C)c(CO)n1 (stereo partly drawn) [Example 217, 1-[(6-{3-Azabicyclo[3.1.0]hexan-3-yl}-2-methylpyridin-3-yl)methyl]-3-(hydroxymethyl)-N-[(4R)-1-methyl-1H,4H,5H,6H-cyclopenta[d]imidazol-4-yl]-1H-pyrazole-4-carboxamide]
Human PKK [1]
  IC50: 0.9 nM
[2]
  IC50: 624 nM
Human TK1
  Ki: > 10000 nM

## Cc1nc(N2CC3C(C2)C3(F)F)ncc1Cn1cc(C(=O)N[C@@H]2CCc3c2ncn3C)cn1 (stereo partly drawn) [Example 218, 1-[(2-{6,6-Difluoro-3-azabicyclo[3.1.0]hexan-3-yl}-4-methylpyrimidin-5-yl)methyl]-N-[(4R)-1-methyl-1H,4H,5H,6H-cyclopenta[d]imidazol-4-yl]-1H-pyrazole-4-carboxamide]
Human PKK [1]
  IC50: 3.5 nM
[2]
  IC50: 646 nM
Human TK1
  Ki: > 10000 nM

## Cc1cc(=O)oc2cc(NC(=O)[C@H](CCCNC(=N)N)NC(=O)[C@H](Cc3ccccc3)NC(=O)[C@@H]3CCCN3)ccc12 [Example I1295, H-Pro-Phe-Arg-AMC] (H-Pro-Phe-Arg-{AMC})
Human PKK [3]
  Km: 160 µM
